Test results published in the supplement of paper PMC10307832.

What was measured:
Experiment in all cases: relative viability (nuclei count vs DMSO), 5 days (fraction); higher = more cells survive
Ispinesib + Foretinib = compound: Cc1ccc(C(=O)N(CCCN)[C@@H](c2nc3cc(Cl)ccc3c(=O)n2Cc2ccccc2)C(C)C)cc1 [Ispinesib] + COc1cc2c(Oc3ccc(NC(=O)C4(C(=O)Nc5ccc(F)cc5)CC4)cc3F)ccnc2cc1OCCCN1CCOCC1 [Foretinib] (partner 0.25 µM)
Summary of the method: (§1)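 Relative viability is defined as nuclei in treated wells over nuclei in vehicle wells. Duplicate plates were run and medians reported. Lung cancer cell lines in 1536-well plates were dosed by pin tool one day after seeding, with one drug or with a fixed anchor-drug dose plus five library-drug doses (not always all listed) in √10 steps, and nuclei were counted after 5 days.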

Linsitinib + Dasatinib = compound: C[C@]1(O)C[C@@H](c2nc(-c3ccc4ccc(-c5ccccc5)nc4c3)c3c(N)nccn32)C1 [Linsitinib] + Cc1nc(Nc2ncc(C(=O)Nc3c(C)cccc3Cl)s2)cc(N2CCN(CCO)CC2)n1 [Dasatinib] (partner 0.075 µM)
Summary of the method: as §1

Ispinesib + Palbociclib = compound: Cc1ccc(C(=O)N(CCCN)[C@@H](c2nc3cc(Cl)ccc3c(=O)n2Cc2ccccc2)C(C)C)cc1 [Ispinesib] + CC(=O)c1c(C)c2cnc(Nc3ccc(N4CCNCC4)cn3)nc2n(C2CCCC2)c1=O [Palbociclib] (partner 0.5 µM)
Summary of the method: as §1

Ispinesib + Navitoclax = compound: Cc1ccc(C(=O)N(CCCN)[C@@H](c2nc3cc(Cl)ccc3c(=O)n2Cc2ccccc2)C(C)C)cc1 [Ispinesib] + CC1(C)CCC(c2ccc(Cl)cc2)=C(CN2CCN(c3ccc(C(=O)NS(=O)(=O)c4ccc(N[C@H](CCN5CCOCC5)CSc5ccccc5)c(S(=O)(=O)C(F)(F)F)c4)cc3)CC2)C1 [Navitoclax] (partner 0.5 µM)
Summary of the method: as §1

Row | Cell Line | relative viability (Ispinesib + Foretinib; first compound 0.001 µM) | relative viability (Ispinesib + Foretinib; first compound 0.003162 µM) | relative viability (Ispinesib + Foretinib; first compound 0.01 µM) | relative viability (Ispinesib + Foretinib; first compound 0.03162 µM) | relative viability (Ispinesib + Foretinib; first compound 0.1 µM) | relative viability (Linsitinib + Dasatinib; first compound 0.01 µM) | relative viability (Linsitinib + Dasatinib; first compound 0.03162 µM) | relative viability (Linsitinib + Dasatinib; first compound 0.1 µM) | relative viability (Linsitinib + Dasatinib; first compound 0.3162 µM) | relative viability (Linsitinib + Dasatinib; first compound 1 µM) | relative viability (Ispinesib + Palbociclib; first compound 0.001 µM) | relative viability (Ispinesib + Palbociclib; first compound 0.003162 µM) | relative viability (Ispinesib + Palbociclib; first compound 0.01 µM) | relative viability (Ispinesib + Palbociclib; first compound 0.03162 µM) | relative viability (Ispinesib + Palbociclib; first compound 0.1 µM) | relative viability (Ispinesib + Navitoclax; first compound 0.001 µM) | relative viability (Ispinesib + Navitoclax; first compound 0.003162 µM) | relative viability (Ispinesib + Navitoclax; first compound 0.01 µM) | relative viability (Ispinesib + Navitoclax; first compound 0.03162 µM) | relative viability (Ispinesib + Navitoclax; first compound 0.1 µM)
1 | NCI-H2023 | 0.966 | 0.755 | 0.807 | 0.457 | 0.168 | 0.472 | 0.373 | 0.528 | 0.29 | 0.218 | 0.462 | 0.392 | 0.383 | 0.145 | 0.138 | 1.07 | 1.09 | 1.1 | 0.837 | 0.21
2 | Calu-6 | 0.981 | 0.887 | 0.854 | 0.39 | 0.125 | – | – | – | – | – | – | – | – | – | – | 0.764 | 0.344 | 0.173 | 0.0922 | 0.12
3 | NCI-H522 | – | – | – | – | – | 0.829 | 1.03 | 0.902 | – | 0.86 | 1 | 0.965 | 1.01 | 0.903 | 1.02 | – | – | – | – | –
4 | HOP-62 | 1.11 | 1.32 | 1.35 | 1.11 | 0.601 | 0.65 | 0.692 | 0.643 | – | 0.565 | 0.448 | 0.548 | 0.617 | 0.516 | 0.388 | 1.19 | 1.12 | 1.53 | 1.12 | 0.171
5 | H3255 | 0.932 | 0.869 | 0.995 | 0.508 | 0.158 | 0.347 | 0.369 | 0.347 | 0.334 | 0.344 | 0.309 | 0.339 | 0.347 | 0.294 | 0.291 | 0.562 | 0.541 | 0.46 | 0.344 | 0.217
6 | NCI-H1734 | 0.809 | 0.859 | 1.08 | 0.827 | 0.343 | 0.473 | 0.488 | 0.45 | 0.504 | 0.315 | 0.396 | 0.224 | 0.41 | 0.346 | 0.279 | 0.868 | 0.952 | 1.04 | 0.777 | 0.549
7 | SK-MES-1 | 1.01 | 1.02 | 0.993 | 0.928 | 0.256 | 0.297 | 0.351 | 0.257 | 0.323 | 0.289 | 0.277 | 0.345 | 0.319 | 0.154 | 0.224 | 1.47 | 1.2 | 1.14 | 0.922 | 0.227
8 | NCI-H1792 | – | – | – | – | – | – | 0.927 | 0.771 | 0.529 | 0.215 | 0.725 | 0.762 | 0.859 | 0.686 | 0.301 | 0.827 | 0.825 | 0.594 | 0.299 | 0.516
